Results published in article PMC6216040, “Repurposing of an old drug: In vitro and in vivo efficacies of buparvaquone against Echinococcus multilocularis” (International Journal for Parasitology: Drugs and Drug …, 2018).
Read-outs that look alike come from different tables or passages of the source.

System: E. multilocularis metacestodes
Test: PGI-assay: drug-induced damage on in vitro cultured metacestodes (Pathogen Box screening cascade and EC50)
Assay type: cell-based, Echinococcus multilocularis
Conditions: for PGI release, % of the Tx-100 control, 5d / PGI release, % of the Tx-100 control, 12d / cytotoxicity at 10 µM: 10 µM, singlets; for PGI release, % of Tx-100 control, average, 5d / PGI release, % of Tx-100 control, average, 12d: confirmatory screening at 10 µM in triplicates, values as % of Tx-100 control; for cytotoxicity at 10 µM: Echinococcus multilocularis
[1] = 120 h, 5 days of incubation, read-out: PGI release, % of the Tx-100 control, 5d
[2] = 288 h, 12 days of incubation, read-out: PGI release, % of the Tx-100 control, 12d

| SMILES | PGI release, % of the Tx-100 control, 5d (5 days of incubation) [%] | PGI release, % of the Tx-100 control, 12d (12 days of incubation) [%] | PGI release, % of Tx-100 control, average, 5d (5 days of incubation) [%] | PGI release, % of Tx-100 control, average, 12d (12 days of incubation) [%] | cytotoxicity at 10 µM [1] [%] | cytotoxicity at 10 µM [2] [%] |
| --- | --- | --- | --- | --- | --- | --- |
| Cc1ccc(NC(=O)CC2COc3ccccc3O2)cc1Cl (stereo not drawn) [MMV676431] | -2.82 | 0.24 |  |  |  |  |
| Cc1ccc2nc(Cl)c(CNCc3cccs3)cc2c1 [MMV676439] | -0.82 | 3.19 |  |  |  |  |
| CC(C)c1ncc(-c2ccncc2)c(C2CCC(CNC(=O)c3cccnc3)CC2)n1 (stereo not drawn) [MMV676442] | -0.58 | 4.83 |  |  |  |  |
| O=C(NC1CCCCC1)N1CCN(Cc2ccc3c(c2)OCO3)CC1 [MMV676444] | -3.25 | 1.66 |  |  |  |  |
| CCCn1c(CNc2ccccc2O)nc2ccccc21 [MMV676445] | -1.26 | 2.30 |  |  |  |  |
| CCc1nc2ccccc2n1CC(O)COc1cc(C)ccc1Cl (stereo not drawn) [MMV676449] | 0.81 | 2.81 |  |  |  |  |
| CCOC(=O)c1cc(-c2csc(Nc3c(C)cc(C)cc3C)n2)on1 [MMV676461] | 0.19 | -0.25 |  |  |  |  |
| NC(CC(=O)c1ccc(Cl)cc1Cl)C(Cl)(Cl)Cl (stereo not drawn) [MMV676468] | -0.27 | -0.82 |  |  |  |  |
| CCOc1ccc(OCC(=O)Nc2cc(C)cc(C)c2)cc1 [MMV676470] | -0.69 | -0.73 |  |  |  |  |
| COc1cccc(OC)c1C(=O)Nc1ccc(Cl)c(-c2nc3ccccc3s2)c1 [MMV676472] | 5.75 | 51.73 | 0.98 | 2.19 |  |  |
| COc1ccccc1OCCCCn1c(C2CC2)nc2ccccc21 [MMV676474] | 1.01 | 0.22 |  |  |  |  |
| Cc1cc(C)cc(COc2ccc3c(C)c(CCC(=O)O)c(=O)oc3c2C)c1 [MMV676476] | 0.11 | 10.97 |  |  |  |  |
| CCc1c(C)nc(-n2nc(C)cc2NC(=O)c2ccccc2SC)[nH]c1=O [MMV676477] | -3.90 | 30.66 | -0.18 | 2.18 |  |  |
| O=C(C1CCN(c2nnc(-n3cccc3)s2)CC1)N1CCC(Cc2ccccc2)CC1 [MMV676478] | -4.04 | 0.80 |  |  |  |  |
| COC(=O)c1c(NC(=O)c2cc3ccccc3oc2=O)sc2c1CCN(Cc1ccccc1)C2 [MMV676480] | -0.80 | 1.41 |  |  |  |  |
| O=C(Nc1n[nH]c(=S)s1)c1cc(Br)ccc1Cl [MMV676492] | 5.74 | 1.03 |  |  |  |  |
| O=C(Nc1nnc(-c2ccc(Cl)s2)o1)c1ccc(Cl)s1 [MMV676501] | 1.15 | 0.52 |  |  |  |  |
| Cc1ccc2oc(-c3cc(NC(=O)Cc4ccccc4)ccc3Cl)nc2c1 [MMV676509] | -0.17 | 0.19 |  |  |  |  |
| O=C(Nc1nc(-c2ccccn2)cs1)c1cncn1-c1ccccc1 [MMV676512] | 0.19 | 0.30 |  |  |  |  |
| O=C(c1cc2ccccc2o1)N1CCN(Cc2ccc3c(c2)OCO3)CC1 [MMV676520] | -0.72 | -0.39 |  |  |  |  |
| Nc1cccnc1Nc1ccc(Cl)cc1 [MMV676524] | 0.13 | 0.29 |  |  |  |  |
| COc1ccc(-c2cc(NC(=O)c3ccc(F)cc3Cl)ccc2OC)cc1 [MMV676526] | 1.97 | -2.37 |  |  |  |  |
| Cc1cccc(NC(=O)c2cc(S(=O)(=O)N(C)c3ccc(F)cc3)ccc2Cl)n1 [MMV676528] | -0.45 | 0.71 |  |  |  |  |

| SMILES | PGI release, % of the Tx-100 control, 5d (5 days of incubation) [%] | PGI release, % of the Tx-100 control, 12d (12 days of incubation) [%] | PGI release, % of Tx-100 control, average, 5d (5 days of incubation) [%] | PGI release, % of Tx-100 control, average, 12d (12 days of incubation) [%] | cytotoxicity at 10 µM [1] [%] | cytotoxicity at 10 µM [2] [%] |
| --- | --- | --- | --- | --- | --- | --- |
| COCC(C)NC(=O)CSc1ncnc2sc(-c3ccccc3)cc12 (stereo not drawn) [MMV676536] | 3.74 | 50.91 | 0.53 | 0.42 |  |  |
| O=C(NCCc1c[nH]c2ccccc12)c1cc2ccccc2oc1=O [MMV676539] | 0.63 | 17.31 |  |  |  |  |
| COc1ccc(Nc2ccccc2NC(=O)c2ccc(=O)[nH]c2)cc1 [MMV676554] | 0.17 | 3.85 |  |  |  |  |
| Cc1nnc(NCc2cccc(Cl)c2)c2ccccc12 [MMV676555] | -3.14 | 1.45 |  |  |  |  |
| CC1=NN(c2nc3ccccc3s2)C(=O)C1Cc1cccc2ccccc12 (stereo not drawn) [MMV676558] | 13.65 | 78.65 | -0.26 | 0.35 |  |  |
| COc1ccc(-c2nc(-c3cccc(NC(=O)Cc4ccc(F)cc4)c3)no2)cc1OC [MMV676571] | -1.41 | 1.58 |  |  |  |  |
| O=C(NC1=NCCS1)c1sc2cc(F)ccc2c1Cl [MMV676584] | -1.36 | 1.53 |  |  |  |  |
| Nc1c2c(nc3sc4c(c13)CCCC4)CCCC2 [MMV676588] | -0.72 | 10.95 |  |  |  |  |
| O=C(CCC1CCCCC1)Nc1cccc(-c2nnc(-c3ccco3)o2)c1 [MMV676589] | -1.81 | 2.20 |  |  |  |  |
| CCCn1nnc(NC(=O)COc2ccc(C3CCCCC3)cc2)n1 [MMV676597] | 0.61 | 0.33 |  |  |  |  |
| CC(C)(C)n1nc(Cc2cccc3ccccc23)c2c(N)ncnc21 [MMV676599] | -0.93 | -0.99 |  |  |  |  |
| CO[C@@H](C(=O)N1Cc2n[nH]c(NC(=O)c3ccc(N4CCN(C)CC4)cc3)c2C1)c1ccccc1 [MMV676600, Danusertib, reference compound] |  |  |  |  | -0.38 | -0.2 |
| CNC(=O)c1nn(C)c2c1C(C)(C)Cc1cnc(Nc3ccc(N4CCN(C)CC4)cc3)nc1-2 [MMV676602] | -1.52 | 120.02 | 0.52 | 12.12 |  |  |
| C[C@H]1COC2(CCN(c3nc(=O)c4cc(C(F)(F)F)cc([N+](=O)[O-])c4s3)CC2)O1 [MMV676603] | -4.72 | 4.80 |  |  |  |  |
| Cc1ncc(-c2ccnc(Nc3ccc(S(C)(=O)=O)cc3)n2)n1C(C)C [MMV676604] | -0.0262 | 0.36 |  |  |  |  |
| C[C@]1(O)C[C@@H](c2nc(-c3ccc4ccc(-c5ccccc5)nc4c3)c3c(N)nccn32)C1 [MMV676605, Linsitinib, reference compound] |  |  |  |  | -0.48 | 0.47 |
| O=C(c1ccc(NCCO)cc1)C1C[C@H]1c1ccc(Cl)cc1 (stereo partly drawn) [MMV676877] | 0.56 | -0.18 |  |  |  |  |
| CCn1cnc2c(Nc3cc(F)cc(F)c3)nc(C#N)nc21 [MMV676881] | 0.06 | -0.62 |  |  |  |  |
| NC(=O)c1cc(-c2ccsc2)ccc1OCCOc1ccccc1 [MMV687138] | -3.72 | 0.14 |  |  |  |  |
| CCCCS(=O)(=O)Nc1ccc2cnn(C)c2c1 [MMV687145] | -0.86 | -2.20 |  |  |  |  |
| Cc1cc(C)c2cc(C(=O)NC3CCCCCCC3)[nH]c2c1 [MMV687146] | -4.26 | -3.34 |  |  |  |  |
| COc1ccc(Cn2cnc3c(-c4ccco4)nc(Cl)nc32)cc1 [MMV687170] | 0.26 | -3.06 |  |  |  |  |
| O=C(C1CCN(c2cc(-n3cccc3)ncn2)CC1)N1CCc2ccccc2C1 [MMV687172] | 1.69 | -1.50 |  |  |  |  |
